Values joined by “and” are separate entries in the source; they are usually repeats but may differ in a detail not shown here. Identical values can stand only once.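 Assay format: 96-well plates, 48-hour exposure. GI50 = concentration required for 50% inhibition of growth. TGI denotes the concentration required for complete inhibition of growth.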 Some results are limits rather than exact numbers.

Test systems include A549 NSCLC; RPMI-8226 leukemia; OVCAR-4 ovarian; SK-MEL-2 melanoma; NCI-H23 lung; MALME-3M melanoma; MOLT-4 leukemia; SN12C renal; OVCAR-5 ovarian; MDA-MB-231 breast.
Assay in all cases: inhibition of tumour cell growth, NCI panel, 48 h

On to `COC(=O)C1C(C(=O)OC)C2(OC)c3ccccc3-c3ccccc3C12` (stereo not given), for which the TGI in the assay with A549 NSCLC is more than 100 µM; with RPMI-8226 leukemia, 71.8 µM; in the assay on OVCAR-4 ovarian, more than 100 µM; in the assay on SK-MEL-2 melanoma it was 54.5 µM; in the assay with NCI-H23 lung it was more than 100 µM; with MALME-3M melanoma, more than 100 µM. The TGI was 43.6 µM with MOLT-4 leukemia, more than 100 µM with SN12C renal and more than 100 µM in the assay with OVCAR-5 ovarian.
As to `CCCCOC(=O)NC(=O)c1cn(CCCOC(=O)CCCCCCCCC(=O)OCCCn2cc(C(=O)NC(=O)OCCCC)c(=O)[nH]c2=O)c(=O)[nH]c1=O`, the TGI in the assay with A549 NSCLC, with RPMI-8226 leukemia, with OVCAR-4 ovarian, with SK-MEL-2 melanoma, with NCI-H23 lung and in the assay on MALME-3M melanoma was more than 100 µM throughout. Also, the TGI with MOLT-4 leukemia, in the assay on SN12C renal and in the assay on OVCAR-5 ovarian was more than 100 µM throughout.
In the case of `COc1ccc(NC(=O)C(=O)C(C(=O)c2ccccc2)C2OC(=O)c3ccccc32)c([N+](=O)[O-])c1` (stereo not given), the TGI in the assay with A549 NSCLC, in the assay with RPMI-8226 leukemia, with OVCAR-4 ovarian, in the assay with SK-MEL-2 melanoma, in the assay on NCI-H23 lung and in the assay with MALME-3M melanoma was more than 100 µM each time. Further, the TGI with MOLT-4 leukemia, in the assay on SN12C renal and with OVCAR-5 ovarian was more than 100 µM in each case.
For the compound `CCCCCCCCC[C@@H]1CC(=O)OCC2OC(O[C@H](CCCCCCCCC)CC(=O)OCC3OC(O[C@H](CCCCCCCCC)CC(=O)OCC4OC(O1)C(O)C(O)C4O)C(O)C(O)C3O)C(O)C(O)C2O` (stereo not given in full), the TGI in the assay with A549 NSCLC was 29.4 µM; in the assay with RPMI-8226 leukemia, 32.7 µM; in the assay with OVCAR-4 ovarian, 32.3 µM; in the assay with SK-MEL-2 melanoma it was 22.3 µM; with NCI-H23 lung it was 30.6 µM; in the assay on MALME-3M melanoma, 22.3 µM. Moreover, the figures for the TGI in the assay on MOLT-4 leukemia, with SN12C renal and in the assay on OVCAR-5 ovarian were 20.6 µM, 28 µM and 22.5 µM, respectively.
`COc1cc(/C=C(\C#N)C(=O)c2ccccc2)ccc1OCc1ccccc1`: the TGI in the assay on A549 NSCLC, with RPMI-8226 leukemia, in the assay with OVCAR-4 ovarian, with SK-MEL-2 melanoma, with NCI-H23 lung and in the assay on MOLT-4 leukemia was more than 100 µM throughout. Moreover, the TGI in the assay with SN12C renal and in the assay with OVCAR-5 ovarian was more than 100 µM throughout.
As for `CCNC(=O)CCN(C(=O)O)S(=O)(=O)c1ccc(NC(=O)c2ccccc2)cc1`, the TGI in the assay on A549 NSCLC, with RPMI-8226 leukemia, with OVCAR-4 ovarian, in the assay on SK-MEL-2 melanoma, with NCI-H23 lung and in the assay on MALME-3M melanoma was more than 100 µM each time. For the same compound, the TGI in the assay with MOLT-4 leukemia, in the assay with SN12C renal and with OVCAR-5 ovarian was more than 100 µM in each case.
As for `COc1ccc(-c2onc(-c3ccc([N+](=O)[O-])cc3)c2C2=NCCN2)cc1`, the TGI with A549 NSCLC, in the assay on RPMI-8226 leukemia, in the assay with OVCAR-4 ovarian, in the assay with SK-MEL-2 melanoma, with NCI-H23 lung and with MALME-3M melanoma was more than 100 µM each time. In addition, the TGI in the assay on MOLT-4 leukemia, with SN12C renal and with OVCAR-5 ovarian was more than 100 µM throughout.
Regarding `O=[N+]([O-])c1cccc(/C=N\NS(=O)(=O)c2ccc(Cl)cc2)c1O`, the TGI in the assay with A549 NSCLC, in the assay on RPMI-8226 leukemia, with OVCAR-4 ovarian, in the assay with SK-MEL-2 melanoma, in the assay on NCI-H23 lung and in the assay with MALME-3M melanoma was more than 100 µM in each case. Also, the TGI in the assay with MOLT-4 leukemia, with SN12C renal and in the assay on OVCAR-5 ovarian was more than 100 µM in each case.
As for `Cc1c[nH]c2c(O)cc3c(c12)[C@H](CCl)CN3C(=O)c1cc2cc(NC(=O)Nc3ccc4[nH]c(C(=O)N5C[C@@H](CCl)c6c5cc(O)c5[nH]cc(C)c65)cc4c3)ccc2[nH]1`, the GI50 with A549 NSCLC was 1.31 nM and 0.000888 µg/mL; in the assay on MDA-MB-231 breast it was 0.0176 µM. Besides, the TGI is 75.5 µM and 0.00228 µg/mL with A549 NSCLC; 48 µM with OVCAR-4 ovarian; 89.3 µM and 8.9e-06 µg/mL and 0.00276 µg/mL with SK-MEL-2 melanoma; 34.2 µM and 0.0012 µg/mL in the assay with MALME-3M melanoma; 54.6 µM with MDA-MB-231 breast.
Regarding `CCCCc1c2c(nc3c1CCC/C3=C\c1ccccc1)C(=O)CCC2`, the TGI came to 62 µM with A549 NSCLC; 45.4 µM in the assay with RPMI-8226 leukemia; 67.9 µM with OVCAR-4 ovarian; 33.9 µM with SK-MEL-2 melanoma; 58.7 µM in the assay with NCI-H23 lung; 52 µM in the assay on MALME-3M melanoma. The figures for the TGI in the assay on MOLT-4 leukemia, in the assay with SN12C renal and in the assay on OVCAR-5 ovarian were 43.4 µM, 47.4 µM and 43.1 µM, respectively.
As for `CC(O)c1cccc(NCc2c3ccccc3c(=O)n3c2oc2ccccc23)c1` (stereo not given), the GI50 with A549 NSCLC was 2.33 µM; in the assay on RPMI-8226 leukemia, 65 µM; in the assay on SK-MEL-2 melanoma, 6.31 µM; in the assay with NCI-H23 lung, 9.41 µM; in the assay on MOLT-4 leukemia it was 5.03 µM; in the assay with MDA-MB-231 breast, 13.3 µM. The GI50 with SN12C renal was 15.5 µM; in the assay with OVCAR-5 ovarian, 18.3 µM. Moreover, the TGI with A549 NSCLC was 24 µM; in the assay on RPMI-8226 leukemia, more than 100 µM; in the assay with SK-MEL-2 melanoma it was 46.9 µM; with NCI-H23 lung, 26.9 µM; in the assay on MOLT-4 leukemia, more than 100 µM; in the assay on MDA-MB-231 breast, 47.9 µM. The TGI in the assay with SN12C renal and in the assay with OVCAR-5 ovarian was more than 100 µM throughout.
Regarding `O=C1OC(CC(=O)c2ccc(Cl)c(Cl)c2)C(Cl)=C1Cl` (stereo not given), the TGI in the assay on A549 NSCLC, in the assay on RPMI-8226 leukemia, in the assay on OVCAR-4 ovarian, with SK-MEL-2 melanoma, in the assay with NCI-H23 lung and in the assay with MALME-3M melanoma was more than 100 µM each time. Besides, the TGI in the assay with MOLT-4 leukemia, with SN12C renal and in the assay with OVCAR-5 ovarian was more than 100 µM throughout.
For `NC(=O)C(=Cc1ccc(C(O)P(=O)(O)O)cc1)C(N)=O` (stereo not given), the TGI in the assay on A549 NSCLC, with RPMI-8226 leukemia, in the assay with OVCAR-4 ovarian, with SK-MEL-2 melanoma, in the assay with NCI-H23 lung and in the assay on MALME-3M melanoma was more than 100 µM throughout. In addition, the TGI in the assay on MOLT-4 leukemia, with SN12C renal and with OVCAR-5 ovarian was more than 100 µM in each case.
As for `NNC(=O)/C(=C/c1ccc(Cl)c(Cl)c1)NC(=O)c1ccccc1`, the TGI with A549 NSCLC, with RPMI-8226 leukemia, with OVCAR-4 ovarian, in the assay with SK-MEL-2 melanoma, with NCI-H23 lung and in the assay on MALME-3M melanoma was more than 100 µM throughout. Also, the TGI with MOLT-4 leukemia, with SN12C renal and in the assay with OVCAR-5 ovarian was more than 100 µM each time.
